Values quoted from earlier work in patent US20140030313A1, “TREATMENT OF MENSTRUAL PAIN AND EXCESSIVE MENSTRUAL BLOOD LOSS BY INTRAVAGINAL ADMINISTRATION OF A LOW DOSE OF ANTIFIBRINOLYTIC OR HEMOSTATIC AGENT IN COMBINATION WITH NON-STEROIDAL ANTI-INFLAMMATORY DRUG” (ARSTAT Inc., priority 2011, published 2014).

Legend:
[1] = intravaginal tampon at 20% of the oral dose, vs oral capsules
[2] = oral, 6 g/day
[3] = not given; remark: listed apart in the source
[4] = not given; remark: listed apart in the source

For `Cc1cccc(Nc2ccccc2C(=O)O)c1C` [mefenamic acid], the pain relief [1] is given as “pain relief equivalent to that achieved with the oral capsules”.

In the case of `NC[C@H]1CC[C@H](C(=O)O)CC1` [tranexamic acid], the “difference to placebo in reduction of large stains, small and large clots and changes in serum ferritin levels” value (tranexamic acid vs placebo treatment) is listed as “no statistically significant differences”, the “risk of gastrointestinal adverse events” value [2] is listed as “increased” and the “incidence of postoperative bleeding complications” value ([3]; mouthwash, compared to placebo) is listed as “reduce the incidence of postoperative bleeding complications”. The plasma concentrations ([4]; after a mouth rinse) was “below 2 mcg/mL”, the “saliva concentrations, maximum level” value ([4]; after a mouth rinse) was “above 200 mcg/mL” and the “time saliva concentration remained at a therapeutic level” value ([4]; after a mouth rinse) was “more than two hours”. For the same compound, the “drug in saliva samples” value ([4]; after an oral tablet) was “not detected” and the “mean drug plasma concentrations” value ([4]; after an oral tablet) was 7000 ng/mL.

For `NC[C@H]1CC[C@H](C(=O)O)CC1` [Lysteda], the “subjects returned to normal MBL after treatment (mean on-treatment MBL of less than 80 mL)” value (Lysteda NDA medical review) is listed as 44% and the “MBL reduction targets established by the FDA” value (oral, 3900 mg/day regimen) is listed as “meets MBL reduction targets established by the FDA”.

In the case of aprotinin, the plasma drug levels ([3]; locally administered) is listed as “without detectable plasma drug levels” and the postoperative blood loss ([3]; locally administered) is listed as “Reduction of the postoperative blood loss”.
